Test results taken from US20110059043A1, “CHEMICAL COMPOUNDS” (priority 2009, published 2011).

What was measured:
[1] = biological target: T1, Recombinant HCV polymerase (BK strain) (Hepatitis C virus genotype 1b, UniProt P26663); test: HCV polymerase enzyme assay (radiometric [33P]-UTP incorporation); type: biochemical, HCV 1b
T1 construct: Recombinant HCV polymerase (BK strain) was expressed and purified from E. coli with a 21 amino acid C-terminal deletion; His6; made in house; host or cells: E. coli
T1 sequence (P26663 2420-2989): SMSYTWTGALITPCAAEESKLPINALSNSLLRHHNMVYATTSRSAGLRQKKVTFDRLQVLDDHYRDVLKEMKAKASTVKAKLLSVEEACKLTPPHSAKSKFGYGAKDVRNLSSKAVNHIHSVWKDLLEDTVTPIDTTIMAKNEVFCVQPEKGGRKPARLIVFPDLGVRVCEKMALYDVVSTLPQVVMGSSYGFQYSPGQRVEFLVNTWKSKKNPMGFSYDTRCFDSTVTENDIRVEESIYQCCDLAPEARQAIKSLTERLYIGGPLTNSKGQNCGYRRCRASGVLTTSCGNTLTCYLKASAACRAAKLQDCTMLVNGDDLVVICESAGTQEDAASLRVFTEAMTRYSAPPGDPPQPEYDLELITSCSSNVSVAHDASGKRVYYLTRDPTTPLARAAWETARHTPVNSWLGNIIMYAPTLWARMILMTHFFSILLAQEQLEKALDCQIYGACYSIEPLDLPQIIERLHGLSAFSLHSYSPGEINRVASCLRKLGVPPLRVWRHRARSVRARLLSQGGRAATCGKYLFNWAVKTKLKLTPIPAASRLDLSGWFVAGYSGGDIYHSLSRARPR
Description: Compounds were tested for inhibition of HCV polymerase using a radiometric [^33P]-UTP incorporation assay and a biotinylated U13:PolyA primer:template RNA substrate.
Recombinant HCV polymerase (BK strain) was expressed and purified from E. coli with a 21 amino acid C-terminal deletion and a His6-tag. The general assay buffer consisted of 20 mM Tris (pH 7.5), 25 mM KCl, 5 mM MgCl2, 3 mM DTT, 0.5 mg/ml BSA, 0.01% Tween20. The standard reaction, in 96 well plates, contained 10 μl of diluted compound, 50 μl of substrate and 40 μl of enzyme. Compounds, supplied as 10 mM stocks in DMSO, were diluted initially in neat DMSO, and subsequently buffer was added to give a DMSO concentration of 30%; 10 μl of this was added to the assay plate to give a final concentration in the 100 μl assay of 3% DMSO. The biotinylated U13:PolyA RNA substrate was pre-annealed with 40 μM 5′-biotinylated U13 (Dharmacon) and 213 μg/ml PolyA (Amersham Biosciences) in water incubated at 70° C. for 5 minutes before being cooled on ice. Substrate (50 μl) was added in buffer to give a final concentration in the 100 μl assay of 125 nM biotinylated U13:0.63 μg/ml PolyA and 200 nM UTP with 0.4 μCi [^33P]-UTP per well (Perkin Elmer). The reaction was initiated by the addition of 40 μl of enzyme in buffer to give 100 nM final concentration. The reaction was incubated at 25° C. for 100 minutes and then stopped by addition of 100 μl of 100 mM EDTA. The samples were then transferred to 96 well Streptavidin-coated FlashPlates (Perkin Elmer) and incubated at room temperature for ˜1 hour to allow binding to occur. The plates were then washed three times with phosphate-buffered saline containing 0.05% Tween20 in an automated plate washer to remove unincorporated [^33P]-UTP, and then counted in a
Each plate included a set of positive controls (no compound, maximum signal) and negative controls (no enzyme, minimum signal) and in each run at least one reference is compound was included to validate the assay. The IC50, concentration required to inhibit the enzyme activity by 50%, was calculated using an 8-point IC50 curve and fitted using the program XLfit (IDBS).

[2] = test system: HCV replicon cells Huh 9B; test: HCV replicon assay (luciferase); type: cell-based; details: Hepatitis C virus, reduction of replicon level by 50% vs untreated cell control, 72 h
Description: (§1) HCV replicon cells Huh 9B (ReBlikon), containing the firefly luciferase—ubiquitin—neomycin phosphotransferase fusion protein and EMCV-IRES driven HCV polyprotein with cell culture adaptive mutations.
(§2) Cells were cultured at 37° C. in a 5% CO2 environment and split twice a week on seeding at 2×10^6 cells/flask on day 1 and 1×10^6 3 days later. G418 at 0.5 mg/ml was added to the culture medium but not the assay medium. The culture medium consisted of DMEM with […] glucose and glutamax (Gibco 61965-026) supplemented with 1×non-essential amino acids (Invitrogen 11140-035), penicillin (100 IU/ml)/streptomycin (100 μg/ml) (Invitrogen 15140-122), FCS (10%, 50 ml) and […] (Invitrogen 10131-027) & 10% Australian foetal calf serum (Invitrogen 10099-141).
(§3) A flask of cells was trypsinised and a cell count carried out. Cells were diluted to 100,000 cells/ml and 100 μl of this used to seed one opaque white 96-well plate (for the replicon assay) and one flat-bottomed clear plate (for the tox assay) for every five compounds to be tested for IC50. Wells G12 and H12 were left empty in the clear plate as the blank. Plates were then incubated at 37° C. in a 5% CO2 environment for 24 h.
(§4) On the following day compound dilutions are made up in medium at twice their desired final concentration in a clear round bottomed plate. All dilutions have a final DMSO concentration of 1%.
(§5) Once the dilution plate had been made up, controls and compounds were transferred to the assay plates (containing the cells) at 100 μl/well in duplicate wells. Exception: no compound was added to wells A1 and A2 of either plate and 100 μl of 1% DMSO was added to these instead. Plates were then incubated at 37° C. with 5% CO2 for 72 h.
At the end of the incubation time, the cells in the white plate were harvested by washing in PBS (100 μL per well) and gently tapping dry before addition of […] of lysis buffer (25 mM tris-phosphate, 8 mM MgCl2, 1 mM DTT, 1% Triton X-100, 15% glycerol. pH to 7.8 using KH2PO4 prior to triton and glycerol addition. Substrate was prepared: 23.5 mM beetle luciferin (Promega E1603), 26 mM ATP (Sigma O-2060) in […] Tris buffer pH 7.8 aliquoted and stored at −80° C. was thawed and diluted 1:50 in luciferase assay buffer (20 mM Tricine (Sigma T-0377), 1.07 mM magnesium carbonate hydroxide (Sigma M-5671), 0.1 mM EDTA (Sigma E-5134), 2.67 mM MgSO4(BDH 101514Y), 33.3 mM dithiothreitol (Sigma 150460) pH 7.8).
The M injector of the microplate luminometer (Lmax, Molecular Devices) was primed with 5×300 μl injections of the diluted substrate. After 5-60 min incubation in lysis buffer at room temperature, a plate was inserted into the luminometer and 100 μl luciferase assay reagent was added by the injector on the luminometer. The signal was measured using a 1 second delay followed by a 4 second measurement programme. The IC50, the concentration of the drug required for reducing the replicon level by 50% in relation to the untreated cell control value, can be calculated from the plot of the percentage reduction of the luciferase activity vs. drug concentration.

[3] = test system: HCV replicon cells Huh 9B; type: cell-based; details: concentration reducing total cell area by 50% relative to DMSO controls; 72 h
Description: as §1, §2, §3, §4, §5
The clear plate was stained with 100 μl 0.5% methylene blue in 50% ethanol at room temperature for lh, followed by solvation of the absorbed methylene blue in 100 μl per well of 1% lauroylsarcosine. Absorbance of the plate was measured on a microplate spectrophotometer (Molecular Devices) and the absorbance for each concentration of compound expressed as a proportion of the relative DMSO control. The TD50, the concentration of drug required to reduce the total cell area by 50% relative to the DMSO controls, can be calculated by plotting the absorbance at 620 nm minus background against drug concentration.

For `COCCOc1ncc(F)cc1C(=O)NC1N=C(c2c(Cl)cc(Cl)cc2Cl)c2ccccc2NC1=O` (stereo not drawn) [Example 30, 5-Fluoro-2-(2-methoxyethoxy)-N-(2-oxo-5-(2,4,6-trichlorophenyl)-2,3-dihydro-1H-benzo[e][1,4]diazepin-3-yl)nicotinamide], the IC50 [1] was 116 nM, the IC50 [2] was 46.4 nM and the “Replicon Assay Value TD50” value [3] was >25 µM.

`COCCOc1ncccc1C(=O)NC1N=C(c2c(Cl)cc(Cl)cc2Cl)c2ccccc2NC1=O` (stereo not drawn) [Example 31, 2-(2-Methoxyethoxy)-N-(2-oxo-5-(2,4,6-trichlorophenyl)-2,3-dihydro-1H-benzo[e][1,4]diazepin-3-yl)nicotinamide] was tested, and the IC50 [1] was 248 nM, the IC50 [2] was 234 nM and the “Replicon Assay Value TD50” value [3] was >25 µM.

In the case of `COCCOc1ncc(Cl)cc1C(=O)NC1N=C(c2c(Cl)cc(Cl)cc2Cl)c2ccccc2NC1=O` (stereo not drawn) [Example 32, 5-Chloro-2-(2-methoxyethoxy)-N-(2-oxo-5-(2,4,6-trichlorophenyl)-2,3-dihydro-1H-benzo[e][1,4]diazepin-3-yl)nicotinamide], the IC50 [1] is reported as 178 nM, the IC50 [2] is reported as 136 nM and the “Replicon Assay Value TD50” value [3] is reported as >25 µM.

For `COCCOc1ncc(Br)cc1C(=O)NC1N=C(c2c(Cl)cc(Cl)cc2Cl)c2ccccc2NC1=O` (stereo not drawn) [Example 33, 5-Bromo-2-(2-methoxyethoxy)-N-(2-oxo-5-(2,4,6-trichlorophenyl)-2,3-dihydro-1H-benzo[e][1,4]diazepin-3-yl)nicotinamide], the IC50 [1] was 265 nM, the IC50 [2] was 487 nM and the “Replicon Assay Value TD50” value [3] was >25 µM.

In the case of `CCOCCOc1ncc(F)cc1C(=O)NC1N=C(c2c(Cl)cc(Cl)cc2Cl)c2ccccc2NC1=O` (stereo not drawn) [Example 34, 2-(2-Ethoxyethoxy)-5-fluoro-N-(2-oxo-5-(2,4,6-trichlorophenyl)-2,3-dihydro-1H-benzo[e][1,4]diazepin-3-yl)nicotinamide], the IC50 [1] is reported as 91 nM, the IC50 [2] is reported as 14.1 nM and the “Replicon Assay Value TD50” value [3] is reported as 11.884 µM.

`CO[C@@H](C)COc1ncc(F)cc1C(=O)NC1N=C(c2c(Cl)cc(Cl)cc2Cl)c2ccccc2NC1=O` (stereo partly drawn) [Example 35, 5-Fluoro-2-((S)-2-methoxypropoxy)-N-(2-oxo-5-(2,4,6-trichlorophenyl)-2,3-dihydro-1H-benzo[e][1,4]diazepin-3-yl)nicotinamide] was tested, and the IC50 [1] was 89.7 nM, the IC50 [2] was 184 nM and the “Replicon Assay Value TD50” value [3] was 24.614 µM.

In the case of `CC(C)OCCOc1ncc(F)cc1C(=O)NC1N=C(c2c(Cl)cc(Cl)cc2Cl)c2ccccc2NC1=O` (stereo not drawn) [Example 36, 5-Fluoro-2-(2-isopropoxyethoxy)-N-(2-oxo-5-(2,4,6-trichlorophenyl)-2,3-dihydro-1H-benzo[e][1,4]diazepin-3-yl)nicotinamide], the IC50 [1] is reported as 244 nM, the IC50 [2] is reported as 308 nM and the “Replicon Assay Value TD50” value [3] is reported as 13.55 µM.

`COCCOCCOc1ncc(F)cc1C(=O)NC1N=C(c2c(Cl)cc(Cl)cc2Cl)c2ccccc2NC1=O` (stereo not drawn) [Example 37, 5-Fluoro-2-(2-(2-methoxyethoxy)ethoxy)-N-(2-oxo-5-(2,4,6-trichlorophenyl)-2,3-dihydro-1H-benzo[e][1,4]diazepin-3-yl)nicotinamide] was tested, and the IC50 [1] was 102 nM, the IC50 [2] was 263 nM and the “Replicon Assay Value TD50” value [3] was 23.09 µM.

`COCCCOc1ncc(F)cc1C(=O)NC1N=C(c2c(Cl)cc(Cl)cc2Cl)c2ccccc2NC1=O` (stereo not drawn) [Example 38, 5-Fluoro-2-(3-methoxypropoxy)-N-(2-oxo-5-(2,4,6-trichlorophenyl)-2,3-dihydro-1H-benzo[e][1,4]diazepin-3-yl)nicotinamide] was tested, and the IC50 [1] was 79 nM, the IC50 [2] was 15.7 nM and the “Replicon Assay Value TD50” value [3] was 22.269 µM.

`CCOCCCOc1ncc(F)cc1C(=O)NC1N=C(c2c(Cl)cc(Cl)cc2Cl)c2ccccc2NC1=O` (stereo not drawn) [Example 39, 2-(3-Ethoxypropoxy)-5-fluoro-N-(2-oxo-5-(2,4,6-trichlorophenyl)-2,3-dihydro-1H-benzo[e][1,4]diazepin-3-yl)nicotinamide] was tested, and the IC50 [1] was 95 nM, the IC50 [2] was 66.3 nM and the “Replicon Assay Value TD50” value [3] was 11.83 µM.
